Measurements reported in PMC9866191, “Novel 9-Benzylaminoacridine Derivatives as Dual Inhibitors of Phosphodiesterase 5 and Topoisomerase II for the Treatment of Colon Cancer” (Molecules, 2023).

Experiments:
Assay in all cases: NCI-60 one-dose screen
Format in all cases: cell-based
SW-620 = details: Homo sapiens; SW-620, Colon Cancer panel; single dose 10^−5 M; read-out: Growth inhibition %
SK-MEL-2 = details: Homo sapiens; SK-MEL-2, Melanoma panel; single dose 10^−5 M; read-out: Growth inhibition %
MCF7 = details: Homo sapiens; MCF7, Breast Cancer panel; single dose 10^−5 M; read-out: Growth inhibition %
SNB-75 = details: Homo sapiens; SNB-75, CNS Cancer panel; single dose 10^−5 M; read-out: Growth inhibition %
NCI-H23 = details: Homo sapiens; NCI-H23, Non-small cell lung panel; single dose 10^−5 M; read-out: Growth inhibition %
SN12C = details: Homo sapiens, Renal Cancer panel, single dose 10^−5 M, read-out: Growth inhibition %
UACC-62 = details: Homo sapiens; UACC-62, Melanoma panel; single dose 10^−5 M; read-out: Growth inhibition %
A549/ATCC = details: Homo sapiens, Non-small cell lung panel, single dose 10^−5 M, read-out: Growth inhibition %
EKVX = details: Homo sapiens, Non-small cell lung panel, single dose 10^−5 M, read-out: Growth inhibition %
NCI/ADR-RES = details: Homo sapiens, Ovarian Cancer panel, single dose 10^−5 M, read-out: Growth inhibition %
COLO 205 = details: Homo sapiens; COLO 205, Colon Cancer panel; single dose 10^−5 M; read-out: Growth inhibition %
U251 = details: Homo sapiens, U-251; U251, CNS Cancer panel; single dose 10^−5 M; read-out: Growth inhibition %
HL-60(TB) = details: Homo sapiens, Leukemia panel, single dose 10^−5 M, read-out: Growth inhibition %
BT-549 = details: Homo sapiens; BT-549, Breast Cancer panel; single dose 10^−5 M; read-out: Growth inhibition %
HT29 = details: Homo sapiens, HT-29; HT29, Colon Cancer panel; single dose 10^−5 M; read-out: Growth inhibition %
MDA-MB-468 = details: Homo sapiens; MDA-MB-468, Breast Cancer panel; single dose 10^−5 M; read-out: Growth inhibition %
786-0 = details: Homo sapiens; 786-0, Renal Cancer panel; single dose 10^−5 M; read-out: Growth inhibition %
OVCAR-4 = details: Homo sapiens; OVCAR-4, Ovarian Cancer panel; single dose 10^−5 M; read-out: Growth inhibition %
ACHN = details: Homo sapiens, Renal Cancer panel, single dose 10^−5 M, read-out: Growth inhibition %
PC-3 = details: Homo sapiens; PC-3, Prostate Cancer panel; single dose 10^−5 M; read-out: Growth inhibition %
SK-MEL-5 = details: Homo sapiens; SK-MEL-5, Melanoma panel; single dose 10^−5 M; read-out: Growth inhibition %
MALME-3M = details: Homo sapiens, Melanoma panel, single dose 10^−5 M, read-out: Growth inhibition %
SF-295 = details: Homo sapiens; SF-295, CNS Cancer panel; single dose 10^−5 M; read-out: Growth inhibition %
HCT-116 = details: Homo sapiens, read-out: Growth inhibition %
M14 = details: Homo sapiens; M14, Melanoma panel; single dose 10^−5 M; read-out: Growth inhibition %
T-47D = details: Homo sapiens, T47D, Breast Cancer panel, single dose 10^−5 M, read-out: Growth inhibition %
NCI-H522 = details: Homo sapiens; NCI-H522, Non-small cell lung panel; single dose 10^−5 M; read-out: Growth inhibition %
UACC-257 = details: Homo sapiens; UACC-257, Melanoma panel; single dose 10^−5 M; read-out: Growth inhibition %
HS 578T = details: Homo sapiens, Breast Cancer panel, single dose 10^−5 M, read-out: Growth inhibition %
CAKI-1 = details: Homo sapiens; CAKI-1, Renal Cancer panel; single dose 10^−5 M; read-out: Growth inhibition %
NCI-H322M = details: Homo sapiens, Non-small cell lung panel, single dose 10^−5 M, read-out: Growth inhibition %
HOP-62 = details: Homo sapiens; HOP-62, Non-small cell lung panel; single dose 10^−5 M; read-out: Growth inhibition %

Row | SMILES | inhibition at 10 µM (SW-620) | inhibition at 10 µM (SK-MEL-2) | inhibition at 10 µM (MCF7) | inhibition at 10 µM (SNB-75) | inhibition at 10 µM (NCI-H23) | inhibition at 10 µM (SN12C) | inhibition at 10 µM (UACC-62) | inhibition at 10 µM (A549/ATCC) | inhibition at 10 µM (EKVX) | inhibition at 10 µM (NCI/ADR-RES) | inhibition at 10 µM (COLO 205) | inhibition at 10 µM (U251) | inhibition at 10 µM (HL-60(TB)) | inhibition at 10 µM (BT-549) | inhibition at 10 µM (HT29) | inhibition at 10 µM (MDA-MB-468) | inhibition at 10 µM (786-0) | inhibition at 10 µM (OVCAR-4) | inhibition at 10 µM (ACHN) | inhibition at 10 µM (PC-3) | other results
1 | Clc1ccccc1CNc1c2ccccc2nc2ccccc12 [Compound 11, Acridin-9-yl-(2-chlorobenzyl)-amine] | 90.4% | 44.4% | 100% | 56.9% | 78.4% | 72.2% | 59% | 80.8% | 74.1% | 76.2% | 99.5% | 76.8% | 86.4% | 61.9% | 94.5% | 128% | 75.5% | 86.9% | 87.8% | 82.9% | inhibition at 10 µM (SK-MEL-5): 58.2%; inhibition at 10 µM (MALME-3M): 81%; inhibition at 10 µM (SF-295): 78.3%; inhibition at 10 µM (HCT-116): 91.9%; inhibition at 10 µM (M14): 81.9%; inhibition at 10 µM (T-47D): 69.5%; inhibition at 10 µM (NCI-H522): 71.5%; inhibition at 10 µM (UACC-257): 55.7%; inhibition at 10 µM (HS 578T): 50%; inhibition at 10 µM (CAKI-1): 74.8%; inhibition at 10 µM (NCI-H322M): 73%; inhibition at 10 µM (HOP-62): 59.1%
2 | Clc1cccc(CNc2c3ccccc3nc3ccccc23)c1 [Compound 12, Acridin-9-yl-(3-chlorobenzyl)-amine] | 88% | 22.7% | 99.1% | 31.3% | 68% | 76.4% | 47.5% | 72.1% | 72.8% | 73.7% | 99.5% | 77.3% | 91% | 40.9% | 91.4% | 118% | 74.8% | 81.2% | 84.3% | 76.5% | inhibition at 10 µM (SK-MEL-5): 33.8%; inhibition at 10 µM (MALME-3M): 55%; inhibition at 10 µM (SF-295): 79.2%; inhibition at 10 µM (HCT-116): 91.3%; inhibition at 10 µM (M14): 64.5%; inhibition at 10 µM (T-47D): 59.1%; inhibition at 10 µM (NCI-H522): 58.3%; inhibition at 10 µM (UACC-257): 54.6%; inhibition at 10 µM (HS 578T): 46.3%; inhibition at 10 µM (CAKI-1): 71.8%; inhibition at 10 µM (NCI-H322M): 68.7%; inhibition at 10 µM (HOP-62): 54.5%
3 | c1coc(CNc2c3ccccc3nc3ccccc23)c1 [Compound 14, Acridin-9-yl-furan-2-ylmethyl-amine] | 57.7% | -1.22% | 78.7% | 18.5% | 36.4% | 46.5% | 33.9% | 38.1% | 38% | 55.2% | 64.8% | 34.9% | 6.96% | 2.59% | 64.9% | 70.7% | 34.3% | 43.1% | 73.8% | 33% | inhibition at 10 µM (SK-MEL-5): 15.7%; inhibition at 10 µM (MALME-3M): 9.63%; inhibition at 10 µM (SF-295): 46.1%; inhibition at 10 µM (HCT-116): 76%; inhibition at 10 µM (M14): 20.3%; inhibition at 10 µM (T-47D): 30.7%; inhibition at 10 µM (NCI-H522): 52.7%; inhibition at 10 µM (UACC-257): 18.3%; inhibition at 10 µM (HS 578T): 16%; inhibition at 10 µM (CAKI-1): 59%; inhibition at 10 µM (NCI-H322M): 35%; inhibition at 10 µM (HOP-62): 30.4%
4 | COc1ccc(CNc2c3ccccc3nc3ccccc23)cc1F [Compound 19, Acridin-9-yl-(3-fluoro-4-methoxybenzyl)-amine] | 83.4% | 54.9% | 97.7% | 57.5% | 73% | 74.1% | 57.5% | 77.2% | 73.9% | 79.2% | 91.3% | 73.1% | 87.1% | 50.5% | 87.8% | 119% | 74% | 73.8% | 89.1% | 69.5% | inhibition at 10 µM (SK-MEL-5): 63.5%; inhibition at 10 µM (MALME-3M): 76.4%; inhibition at 10 µM (SF-295): 79.9%; inhibition at 10 µM (HCT-116): 87.7%; inhibition at 10 µM (M14): 80.1%; inhibition at 10 µM (T-47D): 65%; inhibition at 10 µM (NCI-H522): 63.8%; inhibition at 10 µM (UACC-257): 62.2%; inhibition at 10 µM (HS 578T): 54.5%; inhibition at 10 µM (CAKI-1): 78.7%; inhibition at 10 µM (NCI-H322M): 68.3%; inhibition at 10 µM (HOP-62): 55.5%
5 | COc1ccc2nc3ccccc3c(NCc3ccc(C)cc3)c2c1 [Compound 26, (2-Methoxyacridin-9-yl)-(4-methylbenzyl)-amine] | 81.5% | 30% | 96.6% | 53.4% | 71.7% | 76.4% | 44.3% | 80.7% | 64.8% | 76.2% | 141% | 84.7% | 100% | 48.4% | 98.8% | 119% | 84.2% | 81.5% | 83.7% | 88.6% | inhibition at 10 µM (SK-MEL-5): 65.6%; inhibition at 10 µM (MALME-3M): 78%; inhibition at 10 µM (SF-295): 76.4%; inhibition at 10 µM (HCT-116): 91.4%; inhibition at 10 µM (M14): 71.3%; inhibition at 10 µM (T-47D): 69.4%; inhibition at 10 µM (NCI-H522): 73.6%; inhibition at 10 µM (UACC-257): 108%; inhibition at 10 µM (HS 578T): 57.3%; inhibition at 10 µM (CAKI-1): 73.8%; inhibition at 10 µM (NCI-H322M): 69.7%; inhibition at 10 µM (HOP-62): 61%
